ChEMBL document CHEMBL3885861, “Open TG-GATES”

Species: Rattus norvegicus
Experiment: Open TG-GATES - Regimen: Single
Assay type: toxicity, organism-based, Sprague-Dawley
Set-up: regimen Single, gender Male, age 6 weeks
Conditions: in vivo, po, 0 mg/kg, route gavage, dose level Control; for APTT / Bas / Eos / Fbg / Hb / Ht / Lym / MCH / MCHC / MCV / Mono / Neu / PT / Plat / RBC / Ret / WBC: tissue Blood; for KIDNEY_L / KIDNEY_R / KIDNEY_TOTAL: tissue Kidney; for LIVER: tissue Liver; for A/G / ALP / ALT / AST / BUN / CRE / Ca / Cl / DBIL / GLC / IP / K / LDH / Na / PL / RALB / TBIL / TC / TG / TP / gamma-GTP: tissue Plasma

Structure (SMILES): CCc1oc2ccccc2c1C(=O)c1cc(Br)c(O)c(Br)c1 [BENZBROMARONE]
- TERMINAL_BW (3 h): 217.1 g
- APTT (3 h): 17.3 s
- Bas (3 h): 0%
- Eos (3 h): 1%
- Fbg (3 h): 226.8 mg/dL
- Hb (3 h): 13.8 g/dL
- Ht (3 h): 40.9%
- Lym (3 h): 76.4%
- MCH (3 h): 22.2 pg
- MCHC (3 h): 33.8%
- MCV (3 h): 65.9 fL
- Mono (3 h): 7.4%
- Neu (3 h): 15.2%
- PT (3 h): 11.9 s
- Plat (3 h): 104.6 x10_4/uL
- RBC (3 h): 621.4 x10_4/ul
- Ret (3 h): 7.9%
- WBC (3 h): 127.8 x10_2/uL
- KIDNEY_L (3 h): 0.9 g
- KIDNEY_R (3 h): 0.9 g
- KIDNEY_TOTAL (3 h): 1.9 g
- LIVER (3 h): 10.1 g
- A/G (3 h): 2
- ALP (3 h): 745.6 IU/L
- ALT (3 h): 38.4 IU/L
- AST (3 h): 65.4 IU/L
- BUN (3 h): 12.2 mg/dL
- CRE (3 h): 0.6 mg/dL
- Ca (3 h): 10.8 mg/dL
- Cl (3 h): 104 meq/L
- DBIL (3 h): 0.046 mg/dL
- GLC (3 h): 191 mg/dL
- IP (3 h): 9.7 mg/dL
- K (3 h): 4.8 meq/L
- LDH (3 h): 81.6 IU/L
- Na (3 h): 138.8 meq/L
- PL (3 h): 143.6 mg/dL
- RALB (3 h): 3.8 g/dL
- TBIL (3 h): 0.3 mg/dL
- TC (3 h): 75 mg/dL
- TG (3 h): 84.2 mg/dL
- TP (3 h): 5.7 g/dL
- gamma-GTP (3 h): 1.8 IU/L
- TERMINAL_BW (6 h): 212.5 g
- APTT (6 h): 16 s
- Bas (6 h): 0%
- Eos (6 h): 1%
- Fbg (6 h): 230.2 mg/dL
- Hb (6 h): 14.1 g/dL
- Ht (6 h): 41.9%
- Lym (6 h): 79.8%
- MCH (6 h): 21.8 pg
- MCHC (6 h): 33.6%
- MCV (6 h): 65 fL
- Mono (6 h): 6.2%
- Neu (6 h): 13.6%
- PT (6 h): 12.2 s
- Plat (6 h): 103.2 x10_4/uL
- RBC (6 h): 645.6 x10_4/ul
- Ret (6 h): 7.9%
- WBC (6 h): 125.2 x10_2/uL
- KIDNEY_L (6 h): 1 g
- KIDNEY_R (6 h): 1 g
- KIDNEY_TOTAL (6 h): 2.1 g
- LIVER (6 h): 9.9 g
- A/G (6 h): 2
- ALP (6 h): 690.6 IU/L
- ALT (6 h): 28.2 IU/L
- AST (6 h): 57.4 IU/L
- BUN (6 h): 10.6 mg/dL
- CRE (6 h): 0.5 mg/dL
- Ca (6 h): 10.5 mg/dL
- Cl (6 h): 104.6 meq/L
- DBIL (6 h): 0.006 mg/dL
- GLC (6 h): 182.6 mg/dL
- IP (6 h): 9.7 mg/dL
- K (6 h): 5.2 meq/L
- LDH (6 h): 82.8 IU/L
- Na (6 h): 138.4 meq/L
- PL (6 h): 142.2 mg/dL
- RALB (6 h): 3.8 g/dL
- TBIL (6 h): 0.4 mg/dL
- TC (6 h): 72.4 mg/dL
- TG (6 h): 69.2 mg/dL
- TP (6 h): 5.7 g/dL
- gamma-GTP (6 h): 1.2 IU/L
- TERMINAL_BW (9 h): 208.2 g
- APTT (9 h): 16.2 s
- Bas (9 h): 0%
- Eos (9 h): 0.8%
- Fbg (9 h): 234.8 mg/dL
- Hb (9 h): 13.6 g/dL
- Ht (9 h): 40.6%
- Lym (9 h): 74.6%
- MCH (9 h): 21.6 pg
- MCHC (9 h): 33.5%
- MCV (9 h): 64.4 fL
- Mono (9 h): 5.2%
- Neu (9 h): 19.6%
- PT (9 h): 12.2 s
- Plat (9 h): 105.2 x10_4/uL
- RBC (9 h): 631 x10_4/ul
- Ret (9 h): 7.4%
- WBC (9 h): 95.5 x10_2/uL
- KIDNEY_L (9 h): 1 g
- KIDNEY_R (9 h): 1 g
- KIDNEY_TOTAL (9 h): 2 g
- LIVER (9 h): 9.1 g
- A/G (9 h): 1.9
- ALP (9 h): 623.4 IU/L
- ALT (9 h): 27 IU/L
- AST (9 h): 58.8 IU/L
- BUN (9 h): 11.2 mg/dL
- CRE (9 h): 0.6 mg/dL
- Ca (9 h): 10 mg/dL
- Cl (9 h): 105.2 meq/L
- DBIL (9 h): 0.008 mg/dL
- GLC (9 h): 181.2 mg/dL
- IP (9 h): 11 mg/dL
- K (9 h): 5 meq/L
- LDH (9 h): 86.8 IU/L
- Na (9 h): 139.4 meq/L
- PL (9 h): 126.4 mg/dL
- RALB (9 h): 3.8 g/dL
- TBIL (9 h): 0.3 mg/dL
- TC (9 h): 71.6 mg/dL
- TG (9 h): 42.8 mg/dL
- TP (9 h): 5.8 g/dL
- gamma-GTP (9 h): 1.2 IU/L
- TERMINAL_BW (24 h): 225.6 g
- APTT (24 h): 15.9 s
- Bas (24 h): 0%
- Eos (24 h): 1.2%
- Fbg (24 h): 220.2 mg/dL
- Hb (24 h): 13.9 g/dL
- Ht (24 h): 41.4%
- Lym (24 h): 75%
- MCH (24 h): 21.4 pg
- MCHC (24 h): 33.5%
- MCV (24 h): 63.7 fL
- Mono (24 h): 6.4%
- Neu (24 h): 17.4%
- PT (24 h): 11.9 s
- Plat (24 h): 115 x10_4/uL
- RBC (24 h): 650 x10_4/ul
- Ret (24 h): 7.2%
- WBC (24 h): 109 x10_2/uL
- KIDNEY_L (24 h): 1 g
- KIDNEY_R (24 h): 1 g
- KIDNEY_TOTAL (24 h): 2 g
- LIVER (24 h): 10.9 g
- A/G (24 h): 2.1
- ALP (24 h): 682.4 IU/L
- ALT (24 h): 32.2 IU/L
- AST (24 h): 61 IU/L
- BUN (24 h): 16.8 mg/dL
- CRE (24 h): 0.6 mg/dL
- Ca (24 h): 10.4 mg/dL
- Cl (24 h): 104.6 meq/L
- DBIL (24 h): 0.006 mg/dL
- GLC (24 h): 188.8 mg/dL
- IP (24 h): 7.8 mg/dL
- K (24 h): 5.3 meq/L
- LDH (24 h): 91.6 IU/L
- Na (24 h): 138.8 meq/L
- PL (24 h): 149.4 mg/dL
- RALB (24 h): 4 g/dL
- TBIL (24 h): 0.3 mg/dL
- TC (24 h): 81 mg/dL
- TG (24 h): 100.2 mg/dL
- TP (24 h): 5.9 g/dL
- gamma-GTP (24 h): 1 IU/L
